Experimental data taken from ChEMBL document CHEMBL5465560, “Selectivity Literature for EUbOPEN Chemogenomic Library” (2024).
One block for each compound: values may come before it.

Experiments:
[1] = biological target: T1, Serine/threonine-protein kinase PLK4 (Homo sapiens) (UniProt O00444); test: Selectivity interaction (Ambit KINOMEscan and KiNATiv profiling in Jurkat cells) EUB0000090b PLK4; format: cell-based; conditions: at 1 µM
T1 sequence (whole entry): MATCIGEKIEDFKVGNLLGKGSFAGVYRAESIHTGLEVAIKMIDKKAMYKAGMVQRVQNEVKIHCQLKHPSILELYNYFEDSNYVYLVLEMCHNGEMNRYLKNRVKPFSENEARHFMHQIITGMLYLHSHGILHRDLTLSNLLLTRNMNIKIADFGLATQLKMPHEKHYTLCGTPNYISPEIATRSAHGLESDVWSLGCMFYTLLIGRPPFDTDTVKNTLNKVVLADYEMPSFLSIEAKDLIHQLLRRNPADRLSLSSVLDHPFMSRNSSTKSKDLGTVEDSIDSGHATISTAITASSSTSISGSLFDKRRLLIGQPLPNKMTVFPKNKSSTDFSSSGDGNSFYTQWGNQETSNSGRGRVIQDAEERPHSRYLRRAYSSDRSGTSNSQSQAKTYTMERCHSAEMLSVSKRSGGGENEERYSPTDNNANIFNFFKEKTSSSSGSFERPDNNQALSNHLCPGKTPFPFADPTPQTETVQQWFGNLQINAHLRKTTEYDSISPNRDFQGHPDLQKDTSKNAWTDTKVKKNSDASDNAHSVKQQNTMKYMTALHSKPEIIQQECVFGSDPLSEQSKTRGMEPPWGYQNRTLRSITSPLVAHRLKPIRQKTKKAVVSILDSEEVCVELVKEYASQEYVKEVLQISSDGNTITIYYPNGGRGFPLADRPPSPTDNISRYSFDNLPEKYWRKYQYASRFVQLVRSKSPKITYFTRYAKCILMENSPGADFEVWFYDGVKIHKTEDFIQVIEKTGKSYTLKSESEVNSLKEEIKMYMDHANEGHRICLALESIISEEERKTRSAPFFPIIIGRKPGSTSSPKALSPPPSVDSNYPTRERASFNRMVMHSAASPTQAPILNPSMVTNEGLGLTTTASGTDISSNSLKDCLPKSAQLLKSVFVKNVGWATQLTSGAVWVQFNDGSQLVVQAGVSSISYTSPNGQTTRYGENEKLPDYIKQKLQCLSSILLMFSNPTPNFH

[2] = biological target: Cyclin-dependent kinase 14 (Homo sapiens) (UniProt O94921); test: Selectivity interaction (ActivX KiNativ screen (kinase selectivity in THP-1 cell lysates)) EUB0000639a CDK14; format: subcellular; conditions: lysate, at 1 µM
Aurora kinase B = Aurora kinase B (Homo sapiens, UniProt Q96GD4); test: Selectivity interaction (ActivX KiNativ screen (kinase selectivity in THP-1 cell lysates)) EUB0000639a AURKB; format: subcellular; conditions: lysate, at 0.01 µM
Peregrin (Homo sapiens) = biological target: T2, Peregrin (Homo sapiens) (UniProt P55201); test: Selectivity interaction (PWWP, WD40, and Tudor domain panel (DSLS measurements, literature)) EUB0000270b BRPF1
T2 sequence (whole entry): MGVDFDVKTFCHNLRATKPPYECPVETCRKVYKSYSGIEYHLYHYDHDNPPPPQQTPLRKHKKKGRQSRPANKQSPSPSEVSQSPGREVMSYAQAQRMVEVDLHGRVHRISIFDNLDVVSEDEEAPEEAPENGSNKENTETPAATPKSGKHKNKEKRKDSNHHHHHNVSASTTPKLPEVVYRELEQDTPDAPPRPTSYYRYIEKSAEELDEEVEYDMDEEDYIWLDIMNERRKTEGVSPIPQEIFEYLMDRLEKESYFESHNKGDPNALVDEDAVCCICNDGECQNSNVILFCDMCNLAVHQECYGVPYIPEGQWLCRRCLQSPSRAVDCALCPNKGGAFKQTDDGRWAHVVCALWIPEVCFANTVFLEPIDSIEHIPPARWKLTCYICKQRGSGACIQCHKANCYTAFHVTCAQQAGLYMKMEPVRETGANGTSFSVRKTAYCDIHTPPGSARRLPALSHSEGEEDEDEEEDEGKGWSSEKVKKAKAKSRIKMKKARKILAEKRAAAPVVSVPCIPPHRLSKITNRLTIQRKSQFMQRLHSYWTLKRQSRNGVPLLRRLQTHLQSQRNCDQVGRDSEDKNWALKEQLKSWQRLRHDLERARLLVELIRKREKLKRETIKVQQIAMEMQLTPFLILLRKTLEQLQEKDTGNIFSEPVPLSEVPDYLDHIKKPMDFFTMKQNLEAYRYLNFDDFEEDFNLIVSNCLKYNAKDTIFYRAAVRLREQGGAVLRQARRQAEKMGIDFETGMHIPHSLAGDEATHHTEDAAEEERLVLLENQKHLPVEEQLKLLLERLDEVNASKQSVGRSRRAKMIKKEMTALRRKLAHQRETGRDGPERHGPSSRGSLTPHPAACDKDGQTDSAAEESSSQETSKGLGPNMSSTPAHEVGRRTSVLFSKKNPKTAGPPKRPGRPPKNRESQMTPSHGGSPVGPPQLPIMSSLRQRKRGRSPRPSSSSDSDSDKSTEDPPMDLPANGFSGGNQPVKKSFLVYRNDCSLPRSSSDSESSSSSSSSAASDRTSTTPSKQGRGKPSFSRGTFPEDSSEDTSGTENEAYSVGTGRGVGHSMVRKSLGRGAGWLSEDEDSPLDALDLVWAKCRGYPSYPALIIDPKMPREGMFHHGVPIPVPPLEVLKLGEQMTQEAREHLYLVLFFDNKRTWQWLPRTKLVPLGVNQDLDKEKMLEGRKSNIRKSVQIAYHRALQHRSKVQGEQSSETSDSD

[3] = biological target: Serine/threonine-protein kinase 25 (Homo sapiens) (UniProt O00506); test: Selectivity interaction (KinomeScan (DiscoverX)) EUB0000595a STK25; conditions: at 10 µM
[4] = Selectivity interaction (KinomeScan (DiscoverX)) EUB0000092b CDK2H; conditions: at 10 µM
[5] = biological target: Citron Rho-interacting kinase (Homo sapiens) (UniProt O14578); test: Selectivity interaction (KinomeScan (DiscoverX)) EUB0000045b CIT
[6] = biological target: BMP-2-inducible protein kinase (Homo sapiens) (UniProt Q9NSY1); test: Selectivity interaction (KinomeScan (DiscoverX)) EUB0001619a BMP2K; conditions: at 1 µM
[7] = biological target: Serine/threonine-protein kinase PLK1 (Homo sapiens, UniProt P53350); test: Selectivity interaction (KinomeScan (DiscoverX)) EUB0000618a PLK1; conditions: at 10 µM
[8] = system: Epidermal growth factor receptor (Homo sapiens), P00533 [UNDEFINED MUTATION]; test: Selectivity interaction (KinomeScan (DiscoverX)) EUB0000666a EGFR; conditions: at 10 µM
Chain of Epidermal growth factor receptor (Homo sapiens), P00533 [UNDEFINED MUTATION] (P00533 whole entry, looked up, change not shown): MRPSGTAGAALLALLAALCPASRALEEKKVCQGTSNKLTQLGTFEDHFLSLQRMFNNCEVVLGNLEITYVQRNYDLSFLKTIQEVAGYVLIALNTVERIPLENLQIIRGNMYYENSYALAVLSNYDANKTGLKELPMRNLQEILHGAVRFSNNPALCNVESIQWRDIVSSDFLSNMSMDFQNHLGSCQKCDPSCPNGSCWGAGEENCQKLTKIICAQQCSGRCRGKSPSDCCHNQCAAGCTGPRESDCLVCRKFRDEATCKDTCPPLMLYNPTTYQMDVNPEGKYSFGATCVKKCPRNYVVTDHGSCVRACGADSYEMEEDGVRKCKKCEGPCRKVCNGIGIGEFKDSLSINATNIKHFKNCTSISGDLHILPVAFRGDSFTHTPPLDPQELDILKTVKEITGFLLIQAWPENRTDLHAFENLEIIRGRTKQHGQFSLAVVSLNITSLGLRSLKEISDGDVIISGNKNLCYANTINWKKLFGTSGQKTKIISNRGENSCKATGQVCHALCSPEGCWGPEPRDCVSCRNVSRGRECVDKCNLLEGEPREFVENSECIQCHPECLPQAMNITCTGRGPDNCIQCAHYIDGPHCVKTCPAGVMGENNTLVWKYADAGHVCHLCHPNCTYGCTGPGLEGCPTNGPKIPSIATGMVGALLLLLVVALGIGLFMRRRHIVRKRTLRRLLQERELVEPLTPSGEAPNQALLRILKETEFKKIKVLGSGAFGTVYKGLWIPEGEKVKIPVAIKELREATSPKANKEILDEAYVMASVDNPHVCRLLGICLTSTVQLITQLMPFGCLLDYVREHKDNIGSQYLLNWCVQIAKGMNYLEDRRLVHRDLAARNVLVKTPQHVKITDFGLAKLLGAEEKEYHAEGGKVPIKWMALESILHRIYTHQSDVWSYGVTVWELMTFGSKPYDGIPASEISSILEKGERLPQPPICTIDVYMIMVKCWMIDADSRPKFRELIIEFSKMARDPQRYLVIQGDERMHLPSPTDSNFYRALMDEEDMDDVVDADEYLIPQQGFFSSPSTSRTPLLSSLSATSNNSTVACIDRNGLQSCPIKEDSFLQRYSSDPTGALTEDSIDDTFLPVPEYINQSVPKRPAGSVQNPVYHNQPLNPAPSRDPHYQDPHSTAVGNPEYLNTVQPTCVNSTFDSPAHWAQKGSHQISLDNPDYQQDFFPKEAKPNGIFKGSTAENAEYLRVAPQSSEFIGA

Chain of Citron Rho-interacting kinase (Homo sapiens) (O14578 whole entry): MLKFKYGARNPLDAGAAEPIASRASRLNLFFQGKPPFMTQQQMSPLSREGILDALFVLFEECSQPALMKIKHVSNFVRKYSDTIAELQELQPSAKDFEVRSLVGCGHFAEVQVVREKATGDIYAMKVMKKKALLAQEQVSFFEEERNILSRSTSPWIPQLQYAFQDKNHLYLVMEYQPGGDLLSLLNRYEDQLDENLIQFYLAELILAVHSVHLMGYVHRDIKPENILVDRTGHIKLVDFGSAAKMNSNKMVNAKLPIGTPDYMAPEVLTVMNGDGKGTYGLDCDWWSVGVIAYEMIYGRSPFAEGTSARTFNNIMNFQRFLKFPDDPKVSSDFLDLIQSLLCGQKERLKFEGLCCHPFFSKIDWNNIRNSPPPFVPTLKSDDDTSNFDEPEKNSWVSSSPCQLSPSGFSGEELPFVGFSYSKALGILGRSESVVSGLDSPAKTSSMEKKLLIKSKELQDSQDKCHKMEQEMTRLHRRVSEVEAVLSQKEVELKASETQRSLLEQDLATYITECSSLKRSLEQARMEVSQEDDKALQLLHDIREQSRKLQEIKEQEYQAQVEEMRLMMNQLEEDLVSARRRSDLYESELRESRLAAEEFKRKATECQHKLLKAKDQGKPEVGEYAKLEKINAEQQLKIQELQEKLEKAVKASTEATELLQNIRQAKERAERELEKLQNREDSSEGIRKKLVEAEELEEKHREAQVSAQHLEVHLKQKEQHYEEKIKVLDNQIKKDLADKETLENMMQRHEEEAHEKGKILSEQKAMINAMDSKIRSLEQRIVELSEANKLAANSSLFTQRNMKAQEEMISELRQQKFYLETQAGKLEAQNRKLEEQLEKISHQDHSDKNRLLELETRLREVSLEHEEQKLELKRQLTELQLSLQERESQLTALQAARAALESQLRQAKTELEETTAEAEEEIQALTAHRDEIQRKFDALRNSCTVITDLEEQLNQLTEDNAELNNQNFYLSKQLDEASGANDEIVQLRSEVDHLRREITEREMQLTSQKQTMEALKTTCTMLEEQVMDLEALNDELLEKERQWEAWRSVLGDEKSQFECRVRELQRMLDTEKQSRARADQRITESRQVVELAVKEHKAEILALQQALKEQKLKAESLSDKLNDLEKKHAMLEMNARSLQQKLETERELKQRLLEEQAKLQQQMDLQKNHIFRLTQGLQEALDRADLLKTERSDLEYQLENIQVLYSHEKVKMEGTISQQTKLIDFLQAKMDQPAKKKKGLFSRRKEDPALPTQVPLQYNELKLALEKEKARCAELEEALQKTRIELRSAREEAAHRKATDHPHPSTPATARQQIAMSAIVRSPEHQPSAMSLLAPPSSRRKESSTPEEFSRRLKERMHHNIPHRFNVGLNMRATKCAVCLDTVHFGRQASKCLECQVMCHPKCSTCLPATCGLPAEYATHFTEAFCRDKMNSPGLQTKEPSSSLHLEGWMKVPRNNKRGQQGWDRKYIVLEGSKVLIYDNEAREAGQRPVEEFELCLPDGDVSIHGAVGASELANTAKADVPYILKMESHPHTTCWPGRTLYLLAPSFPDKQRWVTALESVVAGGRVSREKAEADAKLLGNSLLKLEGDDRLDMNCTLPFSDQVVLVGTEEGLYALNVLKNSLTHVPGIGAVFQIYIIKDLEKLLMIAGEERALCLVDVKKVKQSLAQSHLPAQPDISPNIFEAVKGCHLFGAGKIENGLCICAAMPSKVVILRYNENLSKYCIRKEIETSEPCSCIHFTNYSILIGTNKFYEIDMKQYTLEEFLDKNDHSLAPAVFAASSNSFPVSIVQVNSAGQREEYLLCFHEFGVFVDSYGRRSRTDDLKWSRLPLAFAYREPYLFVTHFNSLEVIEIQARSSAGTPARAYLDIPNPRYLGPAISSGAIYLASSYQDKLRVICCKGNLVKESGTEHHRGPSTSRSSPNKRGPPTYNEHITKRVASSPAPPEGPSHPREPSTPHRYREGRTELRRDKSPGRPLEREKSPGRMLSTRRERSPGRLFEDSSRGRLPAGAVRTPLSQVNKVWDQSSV
Chain of Cyclin-dependent kinase 14 (Homo sapiens) (O94921 whole entry): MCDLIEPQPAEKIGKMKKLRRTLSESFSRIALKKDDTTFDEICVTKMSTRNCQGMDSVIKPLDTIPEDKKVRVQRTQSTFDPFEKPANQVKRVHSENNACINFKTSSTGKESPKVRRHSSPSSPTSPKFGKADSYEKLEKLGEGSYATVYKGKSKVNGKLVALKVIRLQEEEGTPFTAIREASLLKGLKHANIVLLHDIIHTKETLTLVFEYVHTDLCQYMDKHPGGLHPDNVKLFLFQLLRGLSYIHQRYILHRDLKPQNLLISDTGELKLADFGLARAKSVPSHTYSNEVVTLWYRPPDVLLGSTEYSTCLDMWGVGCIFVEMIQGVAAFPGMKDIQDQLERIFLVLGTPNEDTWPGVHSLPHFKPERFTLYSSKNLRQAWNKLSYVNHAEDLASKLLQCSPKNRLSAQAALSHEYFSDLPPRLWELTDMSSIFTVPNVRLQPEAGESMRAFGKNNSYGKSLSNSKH
Chain of Aurora kinase B (Q96GD4 whole entry, the tested form may be a part): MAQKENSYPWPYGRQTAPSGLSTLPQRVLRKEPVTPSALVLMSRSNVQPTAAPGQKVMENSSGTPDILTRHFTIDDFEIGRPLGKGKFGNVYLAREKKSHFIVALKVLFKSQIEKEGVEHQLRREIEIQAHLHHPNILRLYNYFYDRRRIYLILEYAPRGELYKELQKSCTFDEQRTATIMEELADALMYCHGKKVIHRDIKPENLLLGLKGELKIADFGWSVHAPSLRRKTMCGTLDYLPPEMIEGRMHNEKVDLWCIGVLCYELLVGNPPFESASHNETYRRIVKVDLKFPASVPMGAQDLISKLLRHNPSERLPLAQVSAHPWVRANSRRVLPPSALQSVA
Chain of Serine/threonine-protein kinase PLK1 (P53350 whole entry): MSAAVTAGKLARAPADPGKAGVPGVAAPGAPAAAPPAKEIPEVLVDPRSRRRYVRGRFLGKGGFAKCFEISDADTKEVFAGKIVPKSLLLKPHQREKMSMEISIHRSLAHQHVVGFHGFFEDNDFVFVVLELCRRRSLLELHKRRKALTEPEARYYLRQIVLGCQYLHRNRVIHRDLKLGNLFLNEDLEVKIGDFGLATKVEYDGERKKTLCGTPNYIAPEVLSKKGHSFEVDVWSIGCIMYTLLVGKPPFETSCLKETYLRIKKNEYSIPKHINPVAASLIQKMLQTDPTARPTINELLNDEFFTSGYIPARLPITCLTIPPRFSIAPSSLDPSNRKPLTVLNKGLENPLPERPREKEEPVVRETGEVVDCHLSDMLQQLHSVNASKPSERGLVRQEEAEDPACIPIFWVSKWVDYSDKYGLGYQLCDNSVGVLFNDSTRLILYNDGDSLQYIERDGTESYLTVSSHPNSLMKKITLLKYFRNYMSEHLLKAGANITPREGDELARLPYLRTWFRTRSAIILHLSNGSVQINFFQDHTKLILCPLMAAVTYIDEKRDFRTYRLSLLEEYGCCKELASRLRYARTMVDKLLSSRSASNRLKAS
Chain of Serine/threonine-protein kinase 25 (Homo sapiens) (O00506 whole entry, looked up): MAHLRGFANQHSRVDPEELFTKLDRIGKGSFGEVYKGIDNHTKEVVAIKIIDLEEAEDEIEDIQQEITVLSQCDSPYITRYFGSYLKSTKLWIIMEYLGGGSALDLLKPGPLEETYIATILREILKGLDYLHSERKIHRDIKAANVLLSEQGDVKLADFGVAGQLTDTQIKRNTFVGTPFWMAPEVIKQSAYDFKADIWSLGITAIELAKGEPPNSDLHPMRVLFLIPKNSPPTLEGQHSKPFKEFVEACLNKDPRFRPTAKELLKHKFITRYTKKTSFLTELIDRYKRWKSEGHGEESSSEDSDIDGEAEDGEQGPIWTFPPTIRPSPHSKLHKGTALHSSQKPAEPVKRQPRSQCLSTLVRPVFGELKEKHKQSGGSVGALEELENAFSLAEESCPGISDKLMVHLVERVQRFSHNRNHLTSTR

Structure (SMILES): CN(C)C/C=C/C(=O)Nc1ccc(C(=O)N2CCCC(Nc3ncc(Cl)c(-c4c[nH]c5ccccc45)n3)C2)cc1 (stereo unspecified)
- % of control [1]: 82%

- % of inhibition [2]: 1.6%
- % of inhibition (Aurora kinase B): 4.9%
Structure (SMILES): CC[C@@H]1[C@H](F)C(=O)N[C@@H]1COc1nccc2cc(C(N)=O)c(OC)cc12 [ZIMLOVISERTIB]

- dTagg (Peregrin (Homo sapiens)): 0 K
Structure (SMILES): Cc1cc(CN)cc(C)c1-c1ncn(C)c1-c1cncn1C

Structure (SMILES): COCC(=O)NC/C=C/c1ccc2ncnc(Nc3ccc(Oc4ccc(C)nc4)c(C)c3)c2c1 [CP-724714]
- % of control [3]: 94%

Structure (SMILES): CCC(=O)N1CCN(c2ccc(-n3c(=O)ccc4cnc5ccc(-c6cnc7ccccc7c6)cc5c43)cc2C(F)(F)F)CC1
- % of control [4]: 97%

Structure (SMILES): C=CC(=O)Nc1cc(-n2c(=O)ccc3cnc4ccc(-c5ccc(NS(C)(=O)=O)cc5)cc4c32)ccc1C
- % of control ([5]; at 1 µM): 83%
- % of control ([5]; at 10 µM): 53%

Structure (SMILES): N#Cc1cccc(-c2c[nH]c3ncnc(N4CCOCC4)c23)c1
- % of control [6]: 54%

Structure (SMILES): O[C@H]1CC[C@H](Nc2ncc3nc(Nc4c(F)cc(F)cc4F)n([C@H]4CCOC4)c3n2)CC1
- % of control [7]: 100%

Structure (SMILES): O=C(NOC[C@H](O)CO)c1ccc(F)c(F)c1Nc1ccc(I)cc1F
- % of control [8]: 51%
